# Calls of active or inactive are those of the source. For most assays here, no stated cut-off is given here; in the data, actives have a measured EC50 and inactives only a lower limit.
# Experiments:
# [1] = Luminescence Cell-Based Dose Confirmation HTS to Identify Inhibitors of Platelet Dense Granule Release. [Related pubchem assays: 1663 (Primary HTS), 1678 (Summary of Project)]; type: functional
# [2] = molecular target: Luciferin 4-monooxygenase (Photinus pyralis, UniProt P08659); assay: inhibition of purified Photinus pyralis luciferase – biochemical, luminescence, dose response (AID 1891)
# [3] = molecular target: T1, Calpain-2 catalytic subunit (Sus scrofa, UniProt P43367); assay: m-calpain protease blockers, concentration series – biochemical, fluorogenic peptide substrate, dose response (AID 1420); type: functional
# T1 sequence (P43367 whole entry): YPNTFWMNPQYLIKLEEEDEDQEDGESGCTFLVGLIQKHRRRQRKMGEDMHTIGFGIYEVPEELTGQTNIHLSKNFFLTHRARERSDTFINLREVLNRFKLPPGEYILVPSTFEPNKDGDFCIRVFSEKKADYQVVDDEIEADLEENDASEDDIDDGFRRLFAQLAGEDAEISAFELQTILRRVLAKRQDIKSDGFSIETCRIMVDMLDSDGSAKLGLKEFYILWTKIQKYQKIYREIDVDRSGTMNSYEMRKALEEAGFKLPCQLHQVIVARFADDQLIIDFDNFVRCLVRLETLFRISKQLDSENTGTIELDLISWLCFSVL
# [4] = fluconazole-exposed Candida albicans growth modulators – fluorescence, retest, confirmation (AID 2467); type: functional, cell-based
# [5] = NIH-3T3 fibroblast cytotoxicity, dose response, cytotoxicity control, cell-based, fluorescence, Alamar Blue, secondary assay (AID 2327); type: functional;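 further: NIH-3T3 mouse fibroblasts cultured with fluconazole at 8 µg/mL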
# [6] = system: Streptococcus sp. 'group A'; assay: Streptococcus pyogenes SK(-)GAS viability under kanamycin – luminescence, BacTiterGlo, confirmation, counter-screen for streptokinase expression inhibitor project, dose response (AID 1900); type: functional, organism-based
# Streptococcus = assay: GAS UMAA2166 growth inhibition – luminescence, BacTiterGlo, counter-screen for streptokinase expression inhibitor project, dose response (AID 1915); type: functional, organism-based;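 further: potency for reduction of bacterial viability or growth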
# [7] = molecular target: T2, Heat shock factor protein 1 (Mus musculus, UniProt P38532); assay: decrease of HSF1-responsive luciferase luminescence – cell-based, NIH3T3, dose retest, confirmation (AID 2382); type: functional;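 further: NIH3T3 fibroblasts with HSF1-driven luciferase reporter stressed by proteasome inhibitor MG132; luminescence from HSF1-driven luciferase expression after 8 hours of MG132 stress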
# T2 sequence (P38532 whole entry): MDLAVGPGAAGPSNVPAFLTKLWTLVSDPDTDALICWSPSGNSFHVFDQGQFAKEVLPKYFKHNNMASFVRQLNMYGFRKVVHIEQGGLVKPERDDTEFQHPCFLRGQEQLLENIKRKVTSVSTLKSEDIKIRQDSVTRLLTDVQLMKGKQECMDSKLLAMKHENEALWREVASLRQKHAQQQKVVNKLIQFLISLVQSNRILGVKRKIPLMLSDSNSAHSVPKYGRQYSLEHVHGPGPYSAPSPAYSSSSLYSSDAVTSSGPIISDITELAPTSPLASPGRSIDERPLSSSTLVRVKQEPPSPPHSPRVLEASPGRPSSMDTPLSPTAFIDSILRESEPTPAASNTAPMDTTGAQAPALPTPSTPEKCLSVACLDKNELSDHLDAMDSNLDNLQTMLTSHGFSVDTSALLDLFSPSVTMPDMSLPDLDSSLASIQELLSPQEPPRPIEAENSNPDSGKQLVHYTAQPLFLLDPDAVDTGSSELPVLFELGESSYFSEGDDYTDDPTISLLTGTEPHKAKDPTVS
# BJ [8] = assay: BJ-TERT-LT-ST fibroblast viability loss – cell-based, RAS-independent, luminescence, dose response (AID 1935); type: functional; conditions: Homo sapiens;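 further: BJ fibroblasts immortalized with TERT plus LT and ST oncogenes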
# BJ [9] = assay: cells; type: functional, cell-based; conditions: Homo sapiens
# BJ [10] = assay: BJ-TERT fibroblast viability loss – cell-based, RAS-independent, luminescence, dose response (AID 1933); type: functional; conditions: Homo sapiens
# [11] = molecular target: T3, Replicative DNA helicase DnaB (Mycobacterium tuberculosis, UniProt P9WMR3); assay: DnaB intein splicing inhibitors, dose response, biochemical, cell-free fluorescence (AID 449749); type: functional
# T3 sequence (P9WMR3 whole entry): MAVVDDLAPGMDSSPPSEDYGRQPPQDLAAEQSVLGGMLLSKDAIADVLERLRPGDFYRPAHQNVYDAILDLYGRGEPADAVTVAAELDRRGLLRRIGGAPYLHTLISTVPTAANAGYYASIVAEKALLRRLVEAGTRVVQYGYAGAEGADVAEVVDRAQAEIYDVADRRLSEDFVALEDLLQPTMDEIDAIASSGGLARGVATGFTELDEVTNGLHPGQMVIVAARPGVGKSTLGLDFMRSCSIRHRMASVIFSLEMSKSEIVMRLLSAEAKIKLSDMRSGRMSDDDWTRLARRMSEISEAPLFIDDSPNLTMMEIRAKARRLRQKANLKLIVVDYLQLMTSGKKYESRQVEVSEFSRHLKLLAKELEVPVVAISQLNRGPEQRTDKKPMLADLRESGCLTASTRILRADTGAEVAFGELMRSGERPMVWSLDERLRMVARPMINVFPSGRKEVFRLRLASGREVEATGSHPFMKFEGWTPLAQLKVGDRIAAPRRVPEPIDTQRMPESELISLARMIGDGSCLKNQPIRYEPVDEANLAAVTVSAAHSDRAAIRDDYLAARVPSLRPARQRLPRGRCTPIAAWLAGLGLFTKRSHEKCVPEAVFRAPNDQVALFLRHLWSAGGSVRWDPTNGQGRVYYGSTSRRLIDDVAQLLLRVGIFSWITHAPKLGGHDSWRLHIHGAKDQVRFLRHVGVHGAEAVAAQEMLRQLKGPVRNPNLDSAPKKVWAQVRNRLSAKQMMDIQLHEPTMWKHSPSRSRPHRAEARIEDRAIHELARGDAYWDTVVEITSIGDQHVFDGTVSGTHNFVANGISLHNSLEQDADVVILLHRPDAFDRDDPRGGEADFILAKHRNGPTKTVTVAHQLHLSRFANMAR
# [12] = DRD fibroblast viability loss – cell-based, non-viral oncogenic, luminescence, dose response (AID 1934); type: functional; conditions: Homo sapiens
# Protein RecA = molecular target: T4, Protein RecA (Mycobacterium tuberculosis, UniProt P9WHJ3); assay: Fluorescence Cell-Free Homogeneous Dose Retest to Identify Inhibitors of RecA-Intein Splicing Activity. [Related pubchem assays (depositor defined):AID2097, AID2223, AID489010, AID492950]; type: functional
# T4 sequence (P9WHJ3 whole entry): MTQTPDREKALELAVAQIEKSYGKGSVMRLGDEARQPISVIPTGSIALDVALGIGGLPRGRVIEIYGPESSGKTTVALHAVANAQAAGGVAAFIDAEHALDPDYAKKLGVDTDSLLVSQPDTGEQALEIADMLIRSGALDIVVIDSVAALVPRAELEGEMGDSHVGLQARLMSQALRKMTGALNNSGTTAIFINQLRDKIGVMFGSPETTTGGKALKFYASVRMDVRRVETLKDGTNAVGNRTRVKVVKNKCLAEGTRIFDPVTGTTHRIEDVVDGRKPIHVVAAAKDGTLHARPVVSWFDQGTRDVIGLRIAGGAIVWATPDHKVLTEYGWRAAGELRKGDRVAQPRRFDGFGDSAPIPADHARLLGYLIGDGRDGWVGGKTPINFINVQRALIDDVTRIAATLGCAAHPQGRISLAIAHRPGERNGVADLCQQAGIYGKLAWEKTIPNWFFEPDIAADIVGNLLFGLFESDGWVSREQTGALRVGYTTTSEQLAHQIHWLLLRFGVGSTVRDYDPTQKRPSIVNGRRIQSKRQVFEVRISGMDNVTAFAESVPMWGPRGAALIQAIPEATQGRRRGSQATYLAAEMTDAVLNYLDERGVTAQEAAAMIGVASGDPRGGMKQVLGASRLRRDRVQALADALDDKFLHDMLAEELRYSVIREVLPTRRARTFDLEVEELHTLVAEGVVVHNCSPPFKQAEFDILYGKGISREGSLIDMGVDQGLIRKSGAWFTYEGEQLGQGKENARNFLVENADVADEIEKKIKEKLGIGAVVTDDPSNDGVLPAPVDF
# H4 = assay: Luminescence Cell-Based Dose Response HTS to Identify Activators of 5'UTR Stem-Loop Driven Prion Protein mRNA Translation in H4 Neuroglioblastoma Cells. [Related pubchem assays: 1829 (Project Summary), 1814 (Primary HTS)]; type: functional; conditions: Homo sapiens
# [13] = Luminescence Cell-Based Dose Response HTS to Identify Activators of Luciferase Translation or Activity in H4 […] Cells. [Related pubchem assays: 1829 (Project Summary), 1814 (Primary HTS)]; type: functional
# INS1 = assay: INS-1E survival protection against cytokine death – cell-based, luminescence, retest, dose response (AID 449756); type: functional; conditions: Rattus norvegicus;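 further: cell death triggered by IL-1 beta plus TNF-alpha plus IFN-gamma mixture; protective hits raise ATP signal compared with cytokine alone wells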
# Streptokinase A = molecular target: T5, Streptokinase A (Streptococcus pyogenes serotype M1, UniProt P10520); assay: viability-normalized secreted streptokinase activity reduction – plasminogen activation absorbance, OD405, dose response (AID 1914); type: functional, Streptococcus pyogenes M1 GAS;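 further: secreted streptokinase activity via plasminogen activation per viability signal from cell pellet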
# T5 sequence (P10520 whole entry): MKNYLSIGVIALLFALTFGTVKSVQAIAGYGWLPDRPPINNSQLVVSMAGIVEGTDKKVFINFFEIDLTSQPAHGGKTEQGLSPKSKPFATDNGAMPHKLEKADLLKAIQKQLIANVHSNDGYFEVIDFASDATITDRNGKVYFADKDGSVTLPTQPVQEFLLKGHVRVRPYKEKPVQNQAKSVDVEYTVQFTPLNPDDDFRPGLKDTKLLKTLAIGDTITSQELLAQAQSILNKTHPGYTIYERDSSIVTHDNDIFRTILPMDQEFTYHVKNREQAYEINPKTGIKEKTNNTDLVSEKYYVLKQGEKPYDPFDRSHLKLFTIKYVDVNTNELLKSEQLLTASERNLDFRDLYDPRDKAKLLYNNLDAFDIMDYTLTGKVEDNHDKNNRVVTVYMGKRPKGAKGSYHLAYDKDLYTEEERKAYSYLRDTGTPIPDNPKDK
# Sequence of Luciferin 4-monooxygenase (P08659 whole entry): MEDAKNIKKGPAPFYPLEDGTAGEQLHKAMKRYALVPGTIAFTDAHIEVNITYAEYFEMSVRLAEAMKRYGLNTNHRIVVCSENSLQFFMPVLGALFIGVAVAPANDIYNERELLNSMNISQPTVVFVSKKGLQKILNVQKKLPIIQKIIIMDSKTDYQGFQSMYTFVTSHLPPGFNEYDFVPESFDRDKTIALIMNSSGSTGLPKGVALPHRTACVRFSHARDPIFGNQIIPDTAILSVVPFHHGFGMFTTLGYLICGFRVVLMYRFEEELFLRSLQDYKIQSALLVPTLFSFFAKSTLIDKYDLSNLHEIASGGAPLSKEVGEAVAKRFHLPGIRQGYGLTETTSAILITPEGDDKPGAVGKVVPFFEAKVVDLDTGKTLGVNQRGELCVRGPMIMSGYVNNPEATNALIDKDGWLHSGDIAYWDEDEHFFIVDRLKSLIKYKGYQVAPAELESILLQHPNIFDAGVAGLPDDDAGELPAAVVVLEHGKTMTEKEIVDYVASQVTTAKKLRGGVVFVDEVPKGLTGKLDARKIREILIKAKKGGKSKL
compound,measurement,setting,value
CCOC(=O)c1cc(-c2ccccc2)sc1NC(=O)C(C)OC(=O)c1cccnc1OCC (stereo not drawn),EC50,[1],> 112 µM (not active)
same,EC50,[2],> 112 µM (not active)
CC(C)OC(=O)c1cn(-c2ccccc2)nc1-c1ccc2c(c1)OCCO2,IC50,[3],39.3 µM (not active)
COc1cccc(N/C=C/C(=O)c2ccc(OC)c(OC)c2)c1,EC50,[1],22.8 µM (active)
same,EC50,[2],14.2 µM (active)
COC(=O)c1sccc1NC(=O)Nc1ccc(OC)c(OC)c1,EC50,[1],9.25 µM (active)
same,EC50,[2],2.36 µM (active)
Cc1c(OC(C)C(=O)NCc2ccccn2)ccc2c3c(c(=O)oc12)CCCC3 (stereo not drawn),EC50,[1],> 112 µM (not active)
same,EC50,[2],> 112 µM (not active)
OCCCNc1nc(-c2ccc(Cl)cc2)nnc1-c1ccc(Br)cc1,IC50,[3],3.09 µM (not active)
COC(=O)c1sc(NC(=O)c2ccoc2C)nc1C,EC50,[1],5.71 µM (active)
same,EC50,[2],2.44 µM (active)
Cc1cc(Nc2cccc(Cl)c2Cl)n2ncnc2n1,EC50,[4],0.769 µM (active)
same,EC50,[5],> 150 µM (inactive)
CCCCNC(=O)c1ccc(N2CCC3(CC2)OCCO3)c([N+](=O)[O-])c1,EC50,[1],> 112 µM (not active)
same,EC50,[2],> 112 µM (not active)
O=C(O)c1cccc(N/N=C/C2=C(Cl)c3cc(Cl)ccc3SC2)c1,IC50,[3],2.38 µM (not active)
same,EC50,[6],2.48 µM (active)
same,EC50,Streptococcus,6.65 µM (active)
same,EC50,[7],> 195 µM (not active)
COc1ccc(NC(=S)N2CCN(CCN3C(=O)c4cccc5cccc(c45)C3=O)CC2)cc1,IC50,[3],24.2 µM (not active)
O=C(N/N=C/c1ccc(Cl)c([N+](=O)[O-])c1)C1CC1,IC50,[3],34.8 µM (not active)
O=C(c1cc(-c2ccccc2)[nH]n1)N1CCc2c([nH]c3ccccc23)C1c1ccccn1 (stereo not drawn),EC50,[4],0.718 µM (active)
same,EC50,[6],10.3 µM (active)
same,EC50,[5],> 160 µM (inactive)
same,EC50,Streptococcus,20.4 µM (active)
O=C(O)c1ccc(CN2C(=O)CSC2=S)cc1,EC50,[4],0.153 µM (active)
same,EC50,[5],> 150 µM (inactive)
CCOC(=O)c1sc(N(Cc2ccccc2)C(=O)CCl)nc1C,EC50,BJ [8],8.8 µM (active)
same,EC50,BJ [9],11.9 µM (active)
same,EC50,BJ [10],1.77 µM (active)
same,AC50,[11],2.6 µM (active)
same,EC50,[12],4.97 µM (inconclusive)
same,EC50,Protein RecA,0.79 µM (active)
O=[N+]([O-])c1cccc(N/N=C/c2ccc(N3CCOCC3)cc2)c1,EC50,H4,13.1 µM (active)
same,EC50,[13],46.8 µM (active)
COc1cc(NC(=O)c2ccccc2NS(=O)(=O)c2ccc(Cl)s2)cc(OC)c1,EC50,[4],4.13 µM (active)
same,EC50,[5],14.5 µM (active)
same,AC50,INS1,5.95 µM (active)
Cc1ccc(C(=O)NC(=O)OCCn2c(C)cnc2[N+](=O)[O-])cc1,EC50,[4],> 38 µM (not active)
same,EC50,[5],> 160 µM (inconclusive)
O=[N+]([O-])/C=C/c1c(OCc2ccccc2)ccc2ccccc12,EC50,BJ [8],3.63 µM (inconclusive)
same,EC50,BJ [9],90.6 µM (inconclusive)
same,EC50,BJ [10],2.3 µM (inconclusive)
same,EC50,[6],1.49 µM (active)
same,EC50,[12],3.7 µM (active)
same,EC50,Streptokinase A,1.2 µM (active)
same,EC50,Streptococcus,4.18 µM (active)
O=C1CCN(N=Nc2cccc(Cl)c2)N1,EC50,[1],> 112 µM (not active)
same,EC50,[2],> 112 µM (not active)
same,AC50,[11],40.7 µM (active)
same,EC50,Protein RecA,15.4 µM (active)
CC(=O)N(C)c1ccc(NC(=O)Nc2ccc(C)cc2)cc1,IC50,[3],0.673 µM (not active)

# Source: ChEMBL document CHEMBL1201862, “PubChem BioAssay data set” (2004)
